Data from US6576266B1, “Plant extract based on glycerides, a method for the preparation of this extract and a cosmetic composition containing the same” (Sodic SA, priority 1999, dated 2003).

Columns and labels:
[1] = target: T1, elastase of human leukocytes (EHL) (Homo sapiens, UniProt P08246); test: Inhibitory action against elastase (synthetic substrate, spectrophotometry at 405 nm); assay type: biochemical
T1 sequence (P08246 30-267): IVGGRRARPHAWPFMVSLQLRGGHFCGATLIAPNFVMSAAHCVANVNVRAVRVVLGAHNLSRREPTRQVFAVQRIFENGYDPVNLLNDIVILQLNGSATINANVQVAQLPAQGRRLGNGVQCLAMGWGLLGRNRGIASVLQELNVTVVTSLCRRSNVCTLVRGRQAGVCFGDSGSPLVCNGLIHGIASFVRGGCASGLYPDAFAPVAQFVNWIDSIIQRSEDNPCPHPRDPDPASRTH
Experimental: It was of interest to investigate the inhibitory action against elastase by the powder extract of the invention and to compare it with that of ceramide 3 alone.
The inhibitory action of the powder extract of the invention against EHL was examined in an aqueous solution of a Tris-HCl buffer, using N-methoxysuccinyl-alanyl-alanyl-prolyl-valyl-para-nitroanilide as a synthetic substrate.
The kinetics of the reaction were determined by spectrophotometry at 405 nm, enabling the measurement of the release of para-nitroanilide, which is a coloured product. The percent inhibitory action of the preparation against the elastase was determined by comparison with a reference curve (hydrolysis of the substrate in the absence of an inhibitor).

[2] = test system: reduction of cytochrome c (xanthin oxidase); test: Radical scavenging: slowing-down of the reduction of cytochrome c (Fridovitch and McCord); assay type: biochemical; conditions: 0.6315 mg/ml, phosphate buffer pH 7.8, 25° C.
Excerpt: The experimental method is based on the procedure developed in 1973 by Fridovitch and McCord for SOD (J. Biol. Chem. 248, 2648).
The determination of the radical scavenging properties is based on the measurement of the inhibition or of the slowing-down of the reduction of cyto-chrome c by the product investigated, by comparison with the effect exerted by xanthin oxidase. The formation of reduced cytochrome c is monitored by spectrophotometry at 550 nm.
In these tests, a plant extract powder of the invention is used at a concentration of 1.5 mg/ml in a phosphate buffer pH 7.8 at 25° C.
Furthermore, an additional test was carried out with Dgdg alone, in the same conditions as above, but using the Fluka 36975 product having a purity of 95%.

In the case of “2,3-di-O-(fatty acid acyl)-1-O-[6′-O-α-D-galactopyranosyl-β-galactopyranosyl]-D-glycerine [Dgdg]”, the “Inhibitory activity against elastase (in words)” value [1] is reported as “practically no inhibitory activity” and the “Slowing-down of the reduction of cytochrome c” value [2] is reported as 36.1%.
